Measured values as given in patent US11174253B2, “Compound and pharmaceutical composition containing the same” (ALPHALA CO., LTD., priority 2017, dated 2021).

Test system: hepatocellular carcinoma cell line Hep3B
Assay: Growth inhibition of Hep3B cells, 48 hr treatment, Hoechst 33342 nucleus count (GE InCell 2200)
Type: cell-based
Conditions: Homo sapiens, Table 5, ratio of number of tumor cells treated with 10 μM compound to non-treated cells
Procedure: The potency of selected compounds was defined by the growth inhibition ability to the hepatocellular carcinoma cell line Hep3B. The Hep3B cells were treated with selected compounds for 48 hr under 37° C., 5% CO2, and 95% relative humidity.
The number of treated cells was determined by GE InCell 2200 system, and treated cells were stained with Hoechst 33342 which can reveal the remained nucleus in culture plate. The proportion of survival cells then were calculated with the ratio of treated/non-treated cells. The growth inhibition/cytotoxic effect of selected compounds were evaluated by the following protocol of NCI-60 screening platform. The human tumor cell lines are plating on a 96 well plate in a fixed density 24 hr prior compound treatment. Compounds with multiple concentrations are then added into each well for further 48 hr incubation. Cell viability is assessed by MTS method and the potency of compound is represented by GI50 and LC50 calculated by MTS result.
Herein, the “Ratio in 10 μM (%)” in the following Tables 1-6 refers to the ratio of the number of tumor cells treated with 10 μM of selected compounds to the number of non-treated tumer cells.

In the case of `CCOc1ccc(-c2nc(NC(=O)c3ccc([N+](=O)[O-])s3)sc2Oc2cccc(F)c2)cc1` [Compound 5-54, N-(4-(4-ethoxyphenyl)-5-(3-fluorophenoxy)thiazol-2-yl)-5-nitrothiophene-2-carboxamide], the viability at 10 µM is reported as 35%.
Work on `CCOc1ccc(-c2nc(NC(=O)c3ccc([N+](=O)[O-])s3)sc2Oc2ccc(F)cc2)cc1` [Compound 5-55, N-(4-(4-ethoxyphenyl)-5-(4-fluorophenoxy)thiazol-2-yl)-5-nitrothiophene-2-carboxamide] yielded a viability at 10 µM of 47%.
`CCOc1ccc(-c2nc(NC(=O)c3ccc([N+](=O)[O-])s3)sc2Oc2ccccc2F)cc1` [Compound 5-57, N-(4-(4-ethoxyphenyl)-5-(2-fluorophenoxy)thiazol-2-yl)-5-nitrothiophene-2-carboxamide] gave a viability at 10 µM of 43%.
For `CCCOc1ccc(-c2nc(NC(=O)c3ccc([N+](=O)[O-])s3)sc2Oc2ccccc2F)cc1` [Compound 5-58, N-(5-(2-fluorophenoxy)-4-(4-propoxyphenyl)thiazol-2-yl)-5-nitrothiophene-2-carboxamide], the viability at 10 µM was 43%.
Molecule `CCC(C)(C)c1ccc(-c2nc(NC(=O)c3ccc([N+](=O)[O-])s3)sc2Oc2ccccc2)cc1` [Compound 5-59, 5-nitro-N-(4-(4-(tert-pentyl)phenyl)-5-phenoxythiazol-2-yl)thiophene-2-carboxamide] has a viability at 10 µM of 38%.
With `O=C(Nc1nc(-c2ccc([N+](=O)[O-])cc2)c(Oc2ccccc2)s1)c1ccc([N+](=O)[O-])s1` [Compound 5-60, 5-nitro-N-(4-(4-nitrophenyl)-5-phenoxythiazol-2-yl)thiophene-2-carboxamide] the viability at 10 µM was 38%.
`COc1cc(-c2nc(NC(=O)c3ccc([N+](=O)[O-])s3)sc2Oc2ccccc2)cc(OC)c1OC` [Compound 5-61, 5-nitro-N-(5-phenoxy-4-(3,4,5-trimethoxyphenyl)thiazol-2-yl)thiophene-2-carboxamide] showed a viability at 10 µM of 59%.
`CC(C)(C)c1ccc(Oc2sc(NC(=O)c3ccc([N+](=O)[O-])s3)nc2-c2ccc(F)cc2)cc1` [Compound 5-64, N-(5-(4-(tert-butyl)phenoxy)-4-(4-fluorophenyl)thiazol-2-yl)-5-nitrothiophene-2-carboxamide] was tested, and the viability at 10 µM was 54%.
Work on `CCCCc1ccc(Oc2sc(NC(=O)c3ccc([N+](=O)[O-])s3)nc2-c2ccc(F)cc2)cc1` [Compound 5-65, N-(5-(4-butylphenoxy)-4-(4-fluorophenyl)thiazol-2-yl)-5-nitrothiophene-2-carboxamide] yielded a viability at 10 µM of 43%.
For `CCCCOc1ccc(-c2nc(NC(=O)c3ccc([N+](=O)[O-])s3)sc2Oc2ccccc2F)cc1` [Compound 5-72, N-(4-(4-butoxyphenyl)-5-(2-fluorophenoxy)thiazol-2-yl)-5-nitrothiophene-2-carboxamide], the viability at 10 µM was 43%.
For `CCCCOc1ccc(-c2nc(NC(=O)c3ccc([N+](=O)[O-])s3)sc2Oc2ccc(F)cc2)cc1` [Compound 5-73, N-(4-(4-butoxyphenyl)-5-(4-fluorophenoxy)thiazol-2-yl)-5-nitrothiophene-2-carboxamide], the viability at 10 µM was 49%.
Work on `CCCc1ccc(-c2nc(NC(=O)c3ccc([N+](=O)[O-])s3)sc2Oc2ccccc2)cc1` [Compound 5-77, 5-nitro-N-(5-phenoxy-4-(4-propylphenyl)thiazol-2-yl)thiophene-2-carboxamide] yielded a viability at 10 µM of 33%.
In the case of `CCCc1ccc(-c2nc(NC(=O)c3ccc([N+](=O)[O-])s3)sc2Oc2ccccc2F)cc1` [Compound 5-78, N-(5-(2-fluorophenoxy)-4-(4-propylphenyl)thiazol-2-yl)-5-nitrothiophene-2-carboxamide], the viability at 10 µM is reported as 33%.
`CCCCc1ccc(-c2nc(NC(=O)c3ccc([N+](=O)[O-])s3)sc2Oc2ccccc2)cc1` [Compound 5-79, N-(4-(4-butylphenyl)-5-phenoxythiazol-2-yl)-5-nitrothiophene-2-carboxamide] showed a viability at 10 µM of 31%.
Work on `CCOc1ccc(-c2nc(N(C)C(=O)c3ccc([N+](=O)[O-])s3)sc2Oc2ccccc2)cc1` [Compound 5-82, N-(4-(4-ethoxyphenyl)-5-phenoxythiazol-2-yl)-N-methyl-5-nitrothiophene-2-carboxamide] yielded a viability at 10 µM of 59%.
`O=C(Nc1nc(-c2ccc(C(F)(F)F)cc2)c(Oc2ccccc2F)s1)c1ccc([N+](=O)[O-])s1` [Compound 5-83, N-(5-(2-fluorophenoxy)-4-(4-(trifluoromethyl)phenyl)thiazol-2-yl)-5-nitrothiophene-2-carboxamide] was tested, and the viability at 10 µM was 36%.
Molecule `O=C(Nc1nc(-c2ccc(OC(F)(F)F)cc2)c(Oc2ccccc2)s1)c1ccc([N+](=O)[O-])s1` [Compound 5-84, 5-nitro-N-(5-phenoxy-4-(4-(trifluoromethoxy)phenyl)thiazol-2-yl)thiophene-2-carboxamide] has a viability at 10 µM of 34%.
Molecule `CCCCOc1ccc(-c2nc(NC(=O)c3ccc([N+](=O)[O-])s3)sc2Oc2ccc(Br)cc2)cc1` [Compound 5-86, N-(5-(4-bromophenoxy)-4-(4-butoxyphenyl)thiazol-2-yl)-5-nitrothiophene-2-carboxamide] has a viability at 10 µM of 24%.
`CCCCOc1ccc(-c2nc(NC(=O)c3ccc([N+](=O)[O-])s3)sc2Oc2cc(C)c(Br)c(C)c2)cc1` [Compound 5-87, N-(5-(4-bromo-3,5-dimethylphenoxy)-4-(4-butoxyphenyl)thiazol-2-yl)-5-nitrothiophene-2-carboxamide] was tested, and the viability at 10 µM was 36%.
Work on `CCCc1ccc(Oc2sc(NC(=O)c3ccc([N+](=O)[O-])s3)nc2-c2ccc(C(C)(C)C)cc2)cc1` [Compound 5-88, N-(4-(4-(tert-butyl)phenyl)-5-(4-propylphenoxy)thiazol-2-yl)-5-nitrothiophene-2-carboxamide] yielded a viability at 10 µM of 36%.
In the case of `CCCCc1ccc(Oc2sc(NC(=O)c3ccc([N+](=O)[O-])s3)nc2-c2ccc(C(C)(C)C)cc2)cc1` [Compound 5-89, N-(4-(4-(tert-butyl)phenyl)-5-(4-butylphenoxy)thiazol-2-yl)-5-nitrothiophene-2-carboxamide], the viability at 10 µM is reported as 36%.
In the case of `CCCCOc1ccc(-c2nc(NC(=O)c3ccc([N+](=O)[O-])s3)sc2Oc2ccc(C(C)(C)C)cc2)cc1` [Compound 5-90, N-(4-(4-butoxyphenyl)-5-(4-(tert-butyl)phenoxy)thiazol-2-yl)-5-nitrothiophene-2-carboxamide], the viability at 10 µM is reported as 48%.
`CCCCOc1ccc(-c2nc(NC(=O)c3ccc([N+](=O)[O-])s3)sc2Oc2ccc(C#N)cc2)cc1` [Compound 5-91, N-(4-(4-butoxyphenyl)-5-(4-cyanophenoxy)thiazol-2-yl)-5-nitrothiophene-2-carboxamide] was tested, and the viability at 10 µM was 46%.
For `NCCCCCOc1ccc(-c2nc(NC(=O)c3ccc([N+](=O)[O-])s3)sc2Oc2ccccc2)cc1` [Compound 5-92, N-(4-(4-((5-aminopentyl)oxy)phenyl)-5-phenoxythiazol-2-yl)-5-nitrothiophene-2-carboxamide], the viability at 10 µM was 46%.
`CCCCOc1ccc(-c2nc(NC(=O)c3ccc([N+](=O)[O-])s3)sc2Oc2ccc(CCC)cc2)cc1` [Compound 5-93, N-(4-(4-butoxyphenyl)-5-(4-propylphenoxy)thiazol-2-yl)-5-nitrothiophene-2-carboxamide] was tested, and the viability at 10 µM was 45%.
Work on `CCCCc1ccc(-c2nc(NC(=O)c3ccc([N+](=O)[O-])s3)sc2Oc2ccc(F)cc2)cc1` [Compound 5-94, N-(4-(4-butylphenyl)-5-(4-fluorophenoxy)thiazol-2-yl)-5-nitrothiophene-2-carboxamide] yielded a viability at 10 µM of 32%.
For `CCCOc1ccc(Oc2sc(NC(=O)c3ccc([N+](=O)[O-])s3)nc2-c2ccc(C(C)(C)C)cc2)cc1` [Compound 5-95, N-(4-(4-(tert-butyl)phenyl)-5-(4-propoxyphenoxy)thiazol-2-yl)-5-nitrothiophene-2-carboxamide], the viability at 10 µM was 38%.
In the case of `CC(C)(C)c1ccc(Oc2sc(NC(=O)c3ccc([N+](=O)[O-])s3)nc2-c2ccc(C(C)(C)C)cc2)cc1` [Compound 5-96, N-(5-(4-(tert-butyl)phenoxy)-4-(4-(tert-butyl)phenyl)thiazol-2-yl)-5-nitrothiophene-2-carboxamide], the viability at 10 µM is reported as 47%.
In the case of `CCCCOc1ccc(-c2nc(NC(=O)c3ccc([N+](=O)[O-])s3)sc2Oc2ccc(C(C)(C)CC)cc2)cc1` [Compound 5-98, N-(4-(4-butoxyphenyl)-5-(4-(tert-pentyl)phenoxy)thiazol-2-yl)-5-nitrothiophene-2-carboxamide], the viability at 10 µM is reported as 50%.
For `Cc1cc(Oc2sc(NC(=O)c3ccc([N+](=O)[O-])s3)nc2-c2ccc(C(C)(C)C)cc2)cc(C)c1Br` [Compound 5-99, N-(5-(4-bromo-3,5-dimethylphenoxy)-4-(4-(tert-butyl)phenyl)thiazol-2-yl)-5-nitrothiophene-2-carboxamide], the viability at 10 µM was 40%.
`Cc1cc(Oc2sc(NC(=O)c3ccc([N+](=O)[O-])s3)nc2-c2ccc(F)cc2)cc(C)c1Br` [Compound 5-100, N-(5-(4-bromo-3,5-dimethylphenoxy)-4-(4-fluorophenyl)thiazol-2-yl)-5-nitrothiophene-2-carboxamide] showed a viability at 10 µM of 30%.
Work on `CCC(C)(C)c1ccc(Oc2sc(NC(=O)c3ccc([N+](=O)[O-])s3)nc2-c2ccc(C(C)(C)C)cc2)cc1` [Compound 5-101, N-(4-(4-(tert-butyl)phenyl)-5-(4-(tert-pentyl)phenoxy)thiazol-2-yl)-5-nitrothiophene-2-carboxamide] yielded a viability at 10 µM of 48%.
For `CCc1ccc(-c2nc(NC(=O)c3ccc([N+](=O)[O-])s3)sc2Oc2ccc(C(C)(C)C)cc2)cc1` [Compound 5-102, N-(5-(4-(tert-butyl)phenoxy)-4-(4-ethylphenyl)thiazol-2-yl)-5-nitrothiophene-2-carboxamide], the viability at 10 µM was 40%.
